# Measurements as given in patent US7348425B2, “Inhibitors of HCV replication” (Bristol-Myers Squibb Company, priority 2004, dated 2008).
# Key:
# [1] = target: T1, HCV NS5B RdRp genotype 1b (Hepatitis C virus genotype 1b, UniProt Q9WMX2); assay: Modified HCV NS5B RdRp enzyme assay (with preincubation); assay type: biochemical
# T1 construct: The protein was expressed with an 18 amino acid C-terminal truncation to enhance the solubility; made in house; host or cells: E. coli BL21 (DE3), pET21a
# In short: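 C-terminally truncated (Δ18) genotype 1b NS5B from E. coli was preincubated (14 nM) with compound, then reaction started with polyA template (0.2 nM), ³H-UTP (0.29 μM) and dT12 primer (20 nM) precaptured on SPA beads. Reaction ran 4 h at 30 °C in pH 7.5 Hepes buffer with 2% DMSO. IC50 came from seven concentrations.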
# HCV replicon = HCV replicon FRET assay; assay type: cell-based; settings: Hepatitis C virus; FRET assay; read-out: EC50
# In short: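 Replicon cells (± Renilla luciferase reporter) incubated with titrated compound at 37 °C; NS3 protease activity read by FRET peptide cleavage (20 uM EDANS/DABCYL substrate, 340/490 nm kinetic) or luciferase.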
# [2] = modified method (with preincubation)
# T1 sequence (Q9WMX2 2420-2992): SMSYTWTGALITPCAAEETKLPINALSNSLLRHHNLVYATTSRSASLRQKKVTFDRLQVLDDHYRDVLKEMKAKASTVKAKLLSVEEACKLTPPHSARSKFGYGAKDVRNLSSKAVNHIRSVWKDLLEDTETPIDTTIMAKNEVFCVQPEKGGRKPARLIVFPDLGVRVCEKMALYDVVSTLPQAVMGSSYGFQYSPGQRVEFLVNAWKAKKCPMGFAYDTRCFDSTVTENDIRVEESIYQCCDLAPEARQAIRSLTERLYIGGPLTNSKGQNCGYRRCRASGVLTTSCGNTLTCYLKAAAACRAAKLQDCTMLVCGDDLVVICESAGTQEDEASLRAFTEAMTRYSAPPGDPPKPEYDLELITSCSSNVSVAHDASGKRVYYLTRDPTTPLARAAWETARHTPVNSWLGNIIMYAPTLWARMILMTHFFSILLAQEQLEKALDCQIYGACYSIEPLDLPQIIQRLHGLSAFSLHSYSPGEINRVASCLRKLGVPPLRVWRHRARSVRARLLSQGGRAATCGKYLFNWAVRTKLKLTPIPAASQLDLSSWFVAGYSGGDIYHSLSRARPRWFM
structure (smiles),measurement,setting,value
CCOC(=O)/C=C/c1ccc(NC(=O)C2(NC(=O)c3ccc4c(C5CCCCC5)c5n(c4c3)CCCc3cc(O)ccc3-5)CCCC2)cc1,IC50,[1]; [2],> 1000 nM
same,EC50,HCV replicon,10 to 1000 nM
O=C(O)/C=C/c1ccc(NC(=O)C2(NC(=O)c3ccc4c(C5CCCCC5)c5n(c4c3)CCCc3cc(O)ccc3-5)CCCC2)cc1,IC50,[1]; [2],20 to 1000 nM
same,EC50,HCV replicon,10 to 1000 nM
O=C1Cn2c(c(C3CCCCC3)c3ccc(C(=O)NC4(C(=O)Nc5ncc(-c6ccc(C(=O)O)cc6)s5)CCCC4)cc32)-c2ccccc2N1,IC50,[1]; [2],20 to 1000 nM
same,EC50,HCV replicon,10 to 1000 nM
O=C1Cn2c(c(C3CCCCC3)c3ccc(C(=O)NC4(C(=O)Nc5nccs5)CCCC4)cc32)-c2ccccc2N1,IC50,[1]; [2],20 to 1000 nM
same,EC50,HCV replicon,10 to 1000 nM
CN(C)CCNC(=O)C1=Cc2ccccc2-c2c(C3CCCCC3)c3ccc(C(=O)O)cc3n2C1,IC50,[1]; [2],20 to 1000 nM
same,EC50,HCV replicon,10 to 1000 nM
O=C(O)/C=C/c1ccc(NC(=O)C2(NC(=O)c3ccc4c(C5CCCCC5)c5n(c4c3)CCCc3nccnc3-5)CCCC2)cc1,IC50,[1]; [2],20 to 1000 nM
same,EC50,HCV replicon,< 100 nM
CN(C)CCNC(=O)C1=Cc2ccccc2-c2c(C3CCCCC3)c3ccc(C(=O)NC4(C(=O)Nc5ccc(/C=C/C(=O)O)cc5)CCCC4)cc3n2C1,IC50,[1]; [2],20 to 1000 nM
same,EC50,HCV replicon,10 to 1000 nM
CCOC(=O)c1cc2cc(NC(=O)C3(NC(=O)c4ccc5c(C6CCCCC6)c6n(c5c4)CC(=O)Nc4ccccc4-6)CCCC3)ccc2n1C,IC50,[1]; [2],20 to 1000 nM
same,EC50,HCV replicon,10 to 1000 nM
O=C(O)c1ccc2c(c1)C1CCN(C(=O)N3CCOCC3)c3ccccc3C1=C2C1CCCCC1 (centres unmarked),IC50,[1]; [2],> 1000 nM
same,EC50,HCV replicon,1000 to 10000 nM
CN(C)C(=O)NC(=O)c1ccc2c(C3CCCCC3)c3n(c2c1)CC(C(=O)N1CCOCC1)=Cc1ccccc1-3,IC50,[1]; [2],20 to 1000 nM
same,EC50,HCV replicon,1000 to 10000 nM
CN(C)S(=O)(=O)NC(=O)c1ccc2c(c1)N1C(O)c3cc(OCc4ccccc4)ccc3C1C2 (centres unmarked),IC50,[1]; [2],20 to 1000 nM
same,EC50,HCV replicon,10 to 1000 nM
COC(=O)c1ccc2c(C3CCCCC3)c3n(c2c1)CC(C(=O)N1CCOCC1)=C(C)c1ccccc1-3,IC50,[1]; [2],> 1000 nM
same,EC50,HCV replicon,1000 to 10000 nM
CC1=C(C(=O)N2CCOCC2)Cn2c(c(C3CCCCC3)c3ccc(C(=O)O)cc32)-c2ccccc21,IC50,[1]; [2],20 to 1000 nM
same,EC50,HCV replicon,10 to 1000 nM
COC(=O)c1ccc2c(C3CCCCC3)c3n(c2c1)C(O)c1cc(Cl)ccc1-3 (centres unmarked),IC50,[1]; [2],> 1000 nM
same,EC50,HCV replicon,10 to 1000 nM
COc1cc(CNC(=O)c2ccc3c(C4CCCCC4)c4n(c3c2)CC(C(=O)N2CCOCC2)=Cc2ccccc2-4)ccc1O,IC50,[1]; [2],20 to 1000 nM
same,EC50,HCV replicon,10 to 1000 nM
COC(=O)C1=Cc2cc(Cl)ccc2-c2c(C3CCCCC3)c3ccc(C(=O)OC)cc3n2C1,IC50,[1]; [2],> 1000 nM
same,EC50,HCV replicon,1000 to 10000 nM
CCN(CC)C1CCN(C(=O)C2=Cc3ccccc3-c3c(C4CCCCC4)c4ccc(C(=O)NS(=O)(=O)N(C)C)cc4n3C2)C1 (centres unmarked),IC50,[1]; [2],20 to 1000 nM
same,EC50,HCV replicon,10 to 1000 nM
CN(C)S(=O)(=O)NC(=O)c1ccc2c(C3CCCCC3)c3n(c2c1)CC(C(=O)N1CCCOCC1)=Cc1ccccc1-3,IC50,[1]; [2],20 to 1000 nM
same,EC50,HCV replicon,10 to 1000 nM
O=C(O)c1ccc2c(C3CCCCC3)c3n(c2c1)CCN(C(=O)Nc1ccccc1)c1ccccc1-3,IC50,[1]; [2],20 to 1000 nM
same,EC50,HCV replicon,1000 to 10000 nM
O=C(O)c1ccc2c(C3CCCCC3)c3n(c2c1)CCN(C(=O)NC1CCCC1)c1ccccc1-3,IC50,[1]; [2],20 to 1000 nM
same,EC50,HCV replicon,10 to 1000 nM
CC(C)N(C)C(=O)C1=Cc2ccccc2-c2c(C3CCCCC3)c3ccc(C(=O)NS(=O)(=O)N(C)C)cc3n2C1,IC50,[1]; [2],20 to 1000 nM
same,EC50,HCV replicon,10 to 1000 nM
CN(CC(O)CO)C(=O)C1=Cc2ccccc2-c2c(C3CCCCC3)c3ccc(C(=O)NS(=O)(=O)N(C)C)cc3n2C1 (centres unmarked),IC50,[1]; [2],20 to 1000 nM
same,EC50,HCV replicon,10 to 1000 nM
CC(C)N(C(=O)C1=Cc2ccccc2-c2c(C3CCCCC3)c3ccc(C(=O)NS(=O)(=O)N(C)C)cc3n2C1)C(C)C,IC50,[1]; [2],20 to 1000 nM
same,EC50,HCV replicon,10 to 1000 nM
CCN(CC)C(=O)C1=Cc2ccccc2-c2c(C3CCCCC3)c3ccc(C(=O)NS(=O)(=O)N(C)C)cc3n2C1,IC50,[1]; [2],20 to 1000 nM
same,EC50,HCV replicon,10 to 1000 nM
COC(=O)C1=Cc2cc(OCc3ccccc3)ccc2-c2c(C3CCCCC3)c3ccc(C(=O)NS(=O)(=O)N(C)C)cc3n2C1,IC50,[1]; [2],20 to 1000 nM
same,EC50,HCV replicon,10 to 1000 nM
CC1CN(C(=O)C2=Cc3ccccc3-c3c(C4CCCCC4)c4ccc(C(=O)NS(=O)(=O)N(C)C)cc4n3C2)CC(C)N1 (centres unmarked),IC50,[1]; [2],20 to 1000 nM
same,EC50,HCV replicon,10 to 1000 nM
CN(CCO)C(=O)C1=Cc2ccccc2-c2c(C3CCCCC3)c3ccc(C(=O)NS(=O)(=O)N(C)C)cc3n2C1,IC50,[1]; [2],20 to 1000 nM
same,EC50,HCV replicon,10 to 1000 nM
CN(C)C(=O)N1CCn2c(c(C3CCCCC3)c3ccc(C(=O)NS(=O)(=O)N(C)C)cc32)-c2ccccc21,IC50,[1]; [2],20 to 1000 nM
same,EC50,HCV replicon,10 to 1000 nM
CC(=O)N1CCn2c(c(C3CCCCC3)c3ccc(C(=O)NS(=O)(=O)N(C)C)cc32)-c2ccccc21,IC50,[1]; [2],20 to 1000 nM
same,EC50,HCV replicon,10 to 1000 nM
CCOC(=O)N1CCn2c(c(C3CCCCC3)c3ccc(C(=O)NS(=O)(=O)C4CC4)cc32)-c2ccccc21,IC50,[1]; [2],20 to 1000 nM
same,EC50,HCV replicon,10 to 1000 nM
O=C(NS(=O)(=O)C1CC1)c1ccc2c(C3CCCCC3)c3n(c2c1)CCNc1ccccc1-3,IC50,[1]; [2],20 to 1000 nM
same,EC50,HCV replicon,10 to 1000 nM
CS(=O)(=O)NC(=O)c1ccc2c(C3CCCCC3)c3n(c2c1)CCNc1ccccc1-3,IC50,[1]; [2],20 to 1000 nM
same,EC50,HCV replicon,10 to 1000 nM
CC(C)(C)OC(=O)N1CCn2c(c(C3CCCCC3)c3ccc(C(=O)NS(C)(=O)=O)cc32)-c2ccccc21,IC50,[1]; [2],20 to 1000 nM
same,EC50,HCV replicon,10 to 1000 nM
COc1ccc2c(c1)CC(F)(C(=O)O)Cn1c-2c(C2CCCCC2)c2ccc(C(=O)NS(=O)(=O)N(C)C)cc21 (centres unmarked),IC50,[1]; preincubation protocol,10 to 1000 nM
same,EC50,HCV replicon,1000 to 10000 nM
COc1ccc2c(c1)CC(F)(C(=O)N1C[C@@H](C)O[C@@H](C)C1)Cn1c-2c(C2CCCCC2)c2ccc(C(=O)NS(=O)(=O)N(C)C)cc21 (some centres unmarked),IC50,[1]; preincubation protocol,10 to 1000 nM
same,EC50,HCV replicon,50 to 1000 nM
CN(C)S(=O)(=O)NC(=O)c1ccc2c(C3CCCCC3)c3n(c2c1)CCCN(C(=O)OC(C)(C)C)c1ccccc1-3,IC50,[1]; preincubation protocol,10 to 1000 nM
same,EC50,HCV replicon,50 to 1000 nM
CN(C)S(=O)(=O)NC(=O)c1ccc2c(C3CCCCC3)c3n(c2c1)CCCNc1ccccc1-3,IC50,[1]; preincubation protocol,10 to 1000 nM
same,EC50,HCV replicon,50 to 1000 nM
COc1ccc2c(c1)C=C(C(=O)N1CC(C)NC(C)C1)Cn1c-2c(C2CCCCC2)c2ccc(C(=O)NS(=O)(=O)N(C)C)cc21 (centres unmarked),IC50,[1]; preincubation protocol,10 to 1000 nM
same,EC50,HCV replicon,50 to 1000 nM
COc1ccc2c(c1)C=C(C(=O)N1CC[C@@H](O)C1)Cn1c-2c(C2CCCCC2)c2ccc(C(=O)NS(=O)(=O)N(C)C)cc21,IC50,[1]; preincubation protocol,10 to 1000 nM
same,EC50,HCV replicon,50 to 1000 nM
COc1ccc2c(c1)C=C(C(=O)N1CCC[C@H](O)C1)Cn1c-2c(C2CCCCC2)c2ccc(C(=O)NS(=O)(=O)N(C)C)cc21,IC50,[1]; preincubation protocol,10 to 1000 nM
same,EC50,HCV replicon,50 to 1000 nM
O=C(O)c1ccc2c(C3CCCCC3)c3n(c2c1)C(C(=O)N1CCOCC1)CNc1ccccc1-3 (centres unmarked),IC50,[1]; preincubation protocol,> 1000 nM
same,EC50,HCV replicon,1000 to 10000 nM
COC(=O)c1ccc2c(C3CCCCC3)c3n(c2c1)CC(CO)=Cc1ccccc1-3,IC50,[1]; preincubation protocol,> 1000 nM
same,EC50,HCV replicon,50 to 1000 nM
COc1ccc2c(c1)C=C(C(=O)N1[C@H](C)CC[C@H]1C)Cn1c-2c(C2CCCCC2)c2ccc(C(=O)NS(=O)(=O)N(C)C)cc21,IC50,[1]; preincubation protocol,10 to 1000 nM
same,EC50,HCV replicon,50 to 1000 nM
CCN(C)C(=O)C1=Cc2cc(OC)ccc2-c2c(C3CCCCC3)c3ccc(C(=O)NS(=O)(=O)N(C)C)cc3n2C1,IC50,[1]; preincubation protocol,10 to 1000 nM
same,EC50,HCV replicon,50 to 1000 nM
COc1ccc2c(c1O)C(O)n1c-2c(C2CCCCC2)c2ccc(C(=O)NS(=O)(=O)N(C)C)cc21 (centres unmarked),IC50,[1]; preincubation protocol,1000 to 10000 nM
same,EC50,HCV replicon,> 100 nM
COc1cc2c(cn1)-c1c(C3CCCCC3)c3ccc(C(=O)NS(=O)(=O)N(C)C)cc3n1CC(C(=O)N1C[C@@H](C)O[C@@H](C)C1)=C2,IC50,[1]; preincubation protocol,1000 to 10000 nM
same,EC50,HCV replicon,> 1000 nM
